The record followed here is US20200023001A1, “GlycoFix (Structurally And Functionally Repaired Endothelial Glycocalyx)” (Northeastern University, priority 2018, published 2020).

The subject of the assay is Cx-containing gap junctions of RFPEC. The experiment in a line: Lucifer Yellow scratch-loading dye transfer assay (gap junction communication). It counts as cell-based, rat. The protocol: Cell Culture. Rat fat pad ECs (RFPEC) at passages 20 to 39 were offspring of cells isolated from rat epididymal fat pad and provided by Dr. Mia Thi of Albert Einstein College of Medicine (Bronx, N.Y.). […] The RFPECs are immortalized, making it possible to use late passages. RFPEC were seeded on 12-14-mm diameter and 0.13-0.17-mm thick glass coverslips at a seeding density of 15,000-20,000 cells/cm^2. Cells were cultured in Dulbecco's Modified Eagle Medium (DMEM, Invitrogen, USA) with 1% penicillin-streptomycin (PS) and 10% fetal bovine serum (FBS, Gibco Life Technologies). Cells were maintained in humidity at 37° C. and 5% CO2. RFPECs reached full confluence in 3 days.
Cultured RFPECs produce thick and robust GCX in this time period. At 3 days post-seeding the RFPECs' culture medium was supplemented with 1% BSA in place of FBS to stabilize the GCX during preservation and immunolabeling (described below). For enzyme treatment experiments, 25 micro-international units per milliliter (μIU/ml) of heparinase III (Hep III; IBEX, Canada) were added to BSA-containing culture media for 2 hours to degrade HS from the GCX [46]. HepIII was washed out, and the wash-out was followed by a 16-hour incubation of RFPECs in regular BSA-containing media. In self-recovery experiments, RFPEC GCX was left to recover for 24 hours after enzyme degradation. The time frame was chosen in accordance with the 20-hour time period that is required for HS restoration to occur on the surface of ECs. For HS recovery experiments, exogenous HS and/or S1P were applied for 16 hours to accommodate the communication test as an assessment of functional glycocalyx recovery. […] After HS was degraded with HepIII, it was replaced by a 16-hour feeding of RFPECs with 59 μg/ml exogenous porcine mucosal HS (Celsus, Cincinnati, Ohio), based on published serum concentration of HS [43]. In sphingosine-1-phosphate experiments, culture media containing enzyme was substituted for media containing either 10 μM of S1P (Sigma-Aldrich) or a combination of 59 μg/ml of HS and 10 μM of S1P for 16 hours after enzyme degradation.
Dye transfer assay, fluorescence microscopy and image analysis. Gap junction functionality was assessed by loading Lucifer Yellow in RFPECs, using a scratch technique, and observing the extent of Lucifer Yellow transfer from loaded cells to neighboring cells (FIG. 7B). Lucifer Yellow has a molecular weight of 457.3 and can only enter cells via broken membranes or via gap junctions. The scratch loading technique involved pre-incubation of RFPECs (for 1 minute) with calcium- and magnesium-free Hanks' Balanced Salt Solution (HBSS; Life Technology) containing 5 mg/ml Lucifer Yellow dye (Life Technology). A 5-μm diameter tip scribe (Ted Pella, Inc, USA) was then used to carefully create a straight scratch in the RFPEC monolayer and to allow the dye to enter the scratched cells. After the dye was loaded, it spread via open gap junctions to adjacent intact cells, with the extent of Lucifer Yellow spread reaching a plateau by 10 minutes after loading. At that point, excess dye was washed out and RFPECs were imaged at 10× magnification (dry objective) using a Zeiss Observer Z1 fluorescence microscope. From recorded images of dye transfer after scratch loading, ImageJ randomly selected dye spread locations that would be quantified along the scratch. At those random locations, lines perpendicular to the scratch axis were drawn, and the intact fluorescent cells (scratched cells excluded) were counted. […]

On to heparan sulfate [HS], for which the “Lucifer Yellow dye spread, neighboring cells receiving dye per scratch-loaded cell” value (RFPEC, Hep III, then 16 h with or without 59 μg/ml HS and/or 10 μM S1P, mean±SEM) turned out to be 1.03±0.07 cells. Further, where the note is “after Hep III, HS 59 μg/ml, S1P 10 μM”, the “Lucifer Yellow dye transfer, result in words (FIG. 4 legend)” value is given as “Not much Lucifer Yellow dye transfer improvement”.
